Starred links: 1 amine or outer side, 2 acyl side, 3 side chain; linkers in the order of their positions; H or OH if unused. Non-standard residues stand in square brackets, D forms with d. Residues, ends and D or L forms follow the SMILES beside them. dPro(cis-4-NH2) = N[C@H]1CN[C@@H](C(=O)O)C1; X1 = O=C([C@H](CCCNCc1ccccn1)N[*:1])[*:2]; dPro(4S-NH2) = N[C@@H]1CN[C@@H](C(=O)O)C1; Pro(cis-4-F) = O=C(O)[C@@H]1C[C@H](F)CN1; Morpholine(3S-CO) = O=C(O)[C@@H]1COCCN1; Pro(4S-NH2) = N[C@@H]1CN[C@H](C(=O)O)C1; Pro(3S-OH) = O=C(O)[C@H]1NCC[C@@H]1O; dCit = NC(=O)NCCC[C@@H](N)C(=O)O; 3Pal = N[C@@H](Cc1cccnc1)C(=O)O; Tic = O=C(O)[C@@H]1Cc2ccccc2CN1; dTic = O=C(O)[C@H]1Cc2ccccc2CN1; Cha = N[C@@H](CC1CCCCC1)C(=O)O; Agb = N=C(N)NCC[C@H](N)C(=O)O; dDab = NCC[C@@H](N)C(=O)O; dPip = O=C(O)[C@H]1CCCCN1; Orn = NCCC[C@H](N)C(=O)O

Consider 19 compounds from patent publication US9637520B2, “Template-fixed peptidomimetics with CXCR7 modulating activity” (POLYPHOR AG, priority 2010, dated 2017).

T1 sequence (P25106 whole entry): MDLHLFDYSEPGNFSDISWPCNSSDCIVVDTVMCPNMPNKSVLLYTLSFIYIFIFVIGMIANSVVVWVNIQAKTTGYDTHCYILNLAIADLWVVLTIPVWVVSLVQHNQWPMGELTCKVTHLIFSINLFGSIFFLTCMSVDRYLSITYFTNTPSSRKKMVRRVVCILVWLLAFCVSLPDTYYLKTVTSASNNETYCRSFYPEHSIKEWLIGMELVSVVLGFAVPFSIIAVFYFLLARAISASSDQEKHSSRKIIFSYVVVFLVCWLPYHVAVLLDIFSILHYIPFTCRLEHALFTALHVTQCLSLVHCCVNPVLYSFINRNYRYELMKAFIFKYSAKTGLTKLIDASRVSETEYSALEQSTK

This test concerns the target T1, CXCR7 (Homo sapiens, UniProt P25106).
T1 construct: host or cells: CHO (PathHunter CHO-CXCR7 β-arrestin cells)
Nature of the test: CXCR7 β-arrestin recruitment assay (PathHunter CHO-CXCR7, DiscoverX), agonistic assay. The test is classed as cell-based. To be noted: agonistic assay; CHO CXCR7 β-arrestin cells; 90 min at 37° C.; chemiluminescence; read-out: β-Arrestin EC50. The procedure:
Lyophilized peptides were weighed on a Microbalance (Mettler MX5) and dissolved in DMSO to a final concentration of 10 mM unless otherwise stated. Stock solutions were kept at +4° C., and protected from light.
2.2 CXCR7 β-Arrestin Recruitment Assay
The PathHunter CHO-CXCR7 (DiscoverX) assay was performed according to the manufacturer's protocol. In brief, CHO CXCR7 β-arrestin cells were seeded at a density of 5000 cells per well in 40 μl of F12 medium in black 96-half volume well culture plates and incubated overnight at 37° C. in a humidified atmosphere with 5% CO2. The next day, serial dilutions of PEM compounds have been prepared in DMSO and subsequently diluted in HBSS buffer containing 0.1% BSA.
For agonistic assay, 10 μl of compound solution or a solution of stromal cell-derived factor-1 (SDF-1) as positive control was added to the cells with a final DMSO concentration of 1% (v/v). The plate was incubated for 90 min at 37° C. in 5% CO2 incubator with gentle shaking (300 rpm) before addition of 40 μl of detection reagent per well. Reaction was developed for 90 min at room temperature in the dark with shaking, and chemiluminescence was measured with a Topcount (Perkin Elmer) luminescence counter.
(Arrestin recruitment assays detect the binding of arrestin to an activated receptor.)
As usually defined, the EC50 is the concentration needed to bring the measured effect to its halfway point. Take `N[C@@H]1C[C@@H]2C(=O)N3Cc4ccccc4C[C@H]3C(=O)N[C@@H](Cc3c[nH]c4ccccc34)C(=O)N[C@H](Cc3ccccc3)C(=O)N[C@@H](Cc3c[nH]c4ccccc34)C(=O)N[C@@H](Cc3c[nH]cn3)C(=O)N2C1` [compound 32, cyclo(-Trp-^DPhe-Trp-His-^DPro((4R)NH2)-Tic-)] (cyclo(H[dPro(cis-4-NH2)][Tic]W[dF]W)): the EC50 was 20.4 ± 6.6 nM. In the case of `N=C(N)NCCC[C@@H]1NC(=O)[C@H](Cc2c[nH]c3ccccc23)NC(=O)[C@@H](Cc2ccccc2)NC(=O)[C@H](Cc2cccnc2)NC(=O)[C@@H]2Cc3ccccc3CN2C(=O)[C@H]2C[C@@H](N)CN2C1=O` [compound 37, cyclo(-3Pal-^DPhe-Trp-Arg-^DPro((4R)NH2)-Tic-)] (cyclo([3Pal][dF]WR[dPro(cis-4-NH2)][Tic])) it was 5.1 ± 0.9 nM; in that of `N=C(N)NCCC[C@@H]1NC(=O)[C@H](Cc2c[nH]c3ccccc23)NC(=O)[C@@H](Cc2ccccc2)NC(=O)[C@H](Cc2c[nH]c3ccccc23)NC(=O)[C@@H]2C[C@H](F)CN2C(=O)[C@H]2CCCN2C1=O` [Ex. 43, cyclo(-Trp-^DPhe-Trp-Arg-^DPro-Pro((4S)F)—)] (cyclo([Pro(cis-4-F)]W[dF]WR[dP])), 119 ± 42.3 nM.

For the compound `CC[C@H](C)[C@@H]1NC(=O)[C@H]([C@@H](C)O)NC(=O)[C@H]2CCCN2C(=O)[C@H](Cc2c[nH]c3ccccc23)NC(=O)[C@H](CCCCN)NC(=O)[C@@H](CCCNC(=N)N)NC1=O` [compound 3, cyclo(-Ile-^DArg-Lys-Trp-^DPro-Thr-)] (cyclo(I[dR]KW[dP]T)), the concentration for a half-maximal effect (EC50) worked out at 78.7 ± 115 nM. Consider `CC[C@H](C)[C@@H]1NC(=O)[C@@H]2[C@@H](O)CCN2C(=O)[C@H]2CCCN2C(=O)[C@H](Cc2c[nH]c3ccccc23)NC(=O)[C@H](CCCNC(=N)N)NC(=O)[C@@H](CCCNC(=N)N)NC1=O` [Ex. 21, cyclo(-Ile-^DArg-Arg-Trp-^DPro-Pro((3S)OH)—)] (cyclo(I[dR]RW[dP][Pro(3S-OH)])), for which the EC50 was 123 ± 85.2 nM. With `CC[C@H](C)[C@@H]1NC(=O)[C@H]([C@@H](C)O)NC(=O)[C@H]2CCCN2C(=O)[C@H](Cc2c[nH]c3ccccc23)NC(=O)[C@H](CCCNCc2ccccn2)NC(=O)[C@@H](CCCNC(=N)N)NC1=O` [compound 70, cyclo(-Ile-^DArg-Orn(Ar4)-Trp-^DPro-Thr-)] (cyclo(I[dR][X1]W[dP]T)), the EC50 was determined as 4.6 ± 0.8 nM. The value for `N=C(N)NCCC[C@@H]1NC(=O)[C@H](Cc2c[nH]c3ccccc23)NC(=O)[C@@H](Cc2ccccc2)NC(=O)[C@H](Cc2c[nH]c3ccccc23)NC(=O)[C@@H]2COCCN2C(=O)[C@H]2CCCN2C1=O` [compound 46, cyclo(-Trp-^DPhe-Trp-Arg-^DPro-Mor-)] (cyclo(R[dP][Morpholine(3S-CO)]W[dF]W)) was 132 ± 53.1 nM; that for `CC[C@H](C)[C@@H]1NC(=O)[C@H]([C@@H](C)O)NC(=O)[C@H]2Cc3ccccc3CN2C(=O)[C@H](Cc2c[nH]c3ccccc23)NC(=O)[C@H](CCCNC(=N)N)NC(=O)[C@@H](CCCNC(=N)N)NC1=O` [compound 67, cyclo(-Ile-^DArg-Arg-Trp-^DTic-Thr-)] (cyclo(I[dR]RW[dTic]T)) was 14.2 ± 5.2 nM; that for `CC[C@H](C)[C@@H]1NC(=O)[C@H]([C@@H](C)O)NC(=O)[C@H]2CCCN2C(=O)[C@H](Cc2c[nH]c3ccccc23)NC(=O)[C@H](CCCNC(=N)N)NC(=O)[C@@H](CCN)NC1=O` [Ex. 5, cyclo(-Ile-^DDab-Arg-Trp-^DPro-Thr-)] (cyclo(I[dDab]RW[dP]T)) was 48.4 ± 67.5 nM. The value for `C[C@@H](O)[C@@H]1NC(=O)[C@H]([C@@H](C)O)NC(=O)[C@H]2CCCN2C(=O)[C@H](CCCNC(=N)N)NC(=O)[C@H](Cc2c[nH]c3ccccc23)NC(=O)[C@@H](CCCNC(=N)N)NC1=O` [compound 19, cyclo(-Thr-^DArg-Trp-Arg-^DPro-Thr-)] (cyclo(R[dP]TT[dR]W)) was 17.2 ± 18.9 nM; that for `C[C@@H](O)[C@@H]1NC(=O)[C@H]2CCCN2C(=O)[C@H](Cc2c[nH]c3ccccc23)NC(=O)[C@H](CCCNC(=N)N)NC(=O)[C@@H](CCCNC(=N)N)NC(=O)[C@H](CC2CCCCC2)NC1=O` [compound 62, cyclo(-Cha-^DArg-Arg-Trp-^DPro-Thr-)] (cyclo([Cha][dR]RW[dP]T)) was 37.7 ± 18.5 nM; that for `N=C(N)NCCC[C@@H]1NC(=O)[C@H](Cc2c[nH]c3ccccc23)NC(=O)[C@@H](Cc2ccccc2)NC(=O)[C@H](Cc2c[nH]c3ccccc23)NC(=O)[C@@H]2C[C@H](N)CN2C(=O)[C@H]2CCCN2C1=O` [compound 44, cyclo(-Trp-^DPhe-Trp-Arg-^DPro-Pro((4S)NH2)—)] (cyclo(R[dP][Pro(4S-NH2)]W[dF]W)) was 36.9 ± 14 nM.

Regarding `N=C(N)NCCC[C@@H]1NC(=O)[C@H](Cc2c[nH]c3ccccc23)NC(=O)[C@@H](Cc2ccccc2)NC(=O)[C@H](Cc2c[nH]c3ccccc23)NC(=O)[C@@H]2Cc3ccccc3CN2C(=O)[C@H]2C[C@H](N)CN2C1=O` [Ex. 25, cyclo(-Trp-^DPhe-Trp-Arg-^DPro((4S)NH2)-Tic-)] (cyclo(R[dPro(4S-NH2)][Tic]W[dF]W)), the concentration for a half-maximal effect (EC50) was found to be 17.5 ± 12.2 nM.

As for `CC[C@H](C)[C@@H]1NC(=O)[C@H]([C@@H](C)O)NC(=O)[C@H]2CCCCN2C(=O)[C@H](Cc2c[nH]c3ccccc23)NC(=O)[C@H](CCCNC(=N)N)NC(=O)[C@@H](CCCNC(=N)N)NC1=O` [compound 14, cyclo(-Ile-^DArg-Arg-Trp-^DPip-Thr-)] (cyclo(I[dR]RW[dPip]T)), the half-maximal effective concentration (EC50) is 0.1 nM. In the case of `N=C(N)NCCC[C@@H]1NC(=O)[C@@H]2Cc3ccccc3CN2C(=O)[C@H]2C[C@H](N)CN2C(=O)[C@H](CCCNC(=N)N)NC(=O)[C@H](Cc2c[nH]c3ccccc23)NC(=O)[C@@H](Cc2ccccc2)NC1=O` [compound 40, cyclo(-Arg-^DPhe-Trp-Arg-^DPro((4S)NH2)-Tic-)] (cyclo(R[dF]WR[dPro(4S-NH2)][Tic])) it was 13.1 ± 4.4 nM; in that of `CC[C@H](C)[C@@H]1NC(=O)[C@H]([C@@H](C)O)NC(=O)[C@H]2CCCN2C(=O)[C@H](Cc2c[nH]c3ccccc23)NC(=O)[C@H](CCCNC(=N)N)NC(=O)[C@@H](CCCNC(N)=O)NC1=O` [compound 13, cyclo(-Ile-^DCit-Arg-Trp-^DPro-Thr-)] (cyclo(I[dCit]RW[dP]T)), 473 ± 68.9 nM. As to `CC[C@H](C)[C@@H]1NC(=O)[C@H]([C@@H](C)O)NC(=O)[C@H]2CCCN2C(=O)[C@H](Cc2c[nH]c3ccccc23)NC(=O)[C@H](CCCN)NC(=O)[C@@H](CCCNC(=N)N)NC1=O` [compound 65, cyclo(-Ile-^DArg-Orn-Trp-^DPro-Thr-)] (cyclo(I[dR][Orn]W[dP]T)), the concentration for a half-maximal effect (EC50) was 816 ± 58.8 nM.

`N=C(N)NCCC[C@@H]1NC(=O)[C@H](Cc2c[nH]c3ccccc23)NC(=O)[C@@H](Cc2ccccc2)NC(=O)[C@H](CCNC(=N)N)NC(=O)[C@@H]2Cc3ccccc3CN2C(=O)[C@H]2C[C@@H](N)CN2C1=O` [compound 36, cyclo(-Agb-^DPhe-Trp-Arg-^DPro((4R)NH2)-Tic-)] (cyclo([Agb][dF]WR[dPro(cis-4-NH2)][Tic])): the EC50 was found to be 452 ± 15.8 nM. The value for `N=C(N)NCCC[C@@H]1NC(=O)[C@@H]2Cc3ccccc3CN2C(=O)[C@H]2C[C@@H](N)CN2C(=O)[C@H](CCCNC(=N)N)NC(=O)[C@H](Cc2c[nH]c3ccccc23)NC(=O)[C@@H](Cc2ccccc2)NC1=O` [compound 33, cyclo(-Arg-^DPhe-Trp-Arg-^DPro((4R)NH2)-Tic-)] (cyclo(R[dF]WR[dPro(cis-4-NH2)][Tic])) was 248 ± 16.5 nM.
